Data taken from ChEMBL document CHEMBL5465560, “Selectivity Literature for EUbOPEN Chemogenomic Library” (2024).

Experiments:
[1] = biological target: T1, Serine/threonine-protein kinase ULK1 (Homo sapiens) (UniProt O75385); assay: Selectivity interaction (Kinase panel (DSF assay)) EUB0001559a ULK1
T1 sequence (whole entry): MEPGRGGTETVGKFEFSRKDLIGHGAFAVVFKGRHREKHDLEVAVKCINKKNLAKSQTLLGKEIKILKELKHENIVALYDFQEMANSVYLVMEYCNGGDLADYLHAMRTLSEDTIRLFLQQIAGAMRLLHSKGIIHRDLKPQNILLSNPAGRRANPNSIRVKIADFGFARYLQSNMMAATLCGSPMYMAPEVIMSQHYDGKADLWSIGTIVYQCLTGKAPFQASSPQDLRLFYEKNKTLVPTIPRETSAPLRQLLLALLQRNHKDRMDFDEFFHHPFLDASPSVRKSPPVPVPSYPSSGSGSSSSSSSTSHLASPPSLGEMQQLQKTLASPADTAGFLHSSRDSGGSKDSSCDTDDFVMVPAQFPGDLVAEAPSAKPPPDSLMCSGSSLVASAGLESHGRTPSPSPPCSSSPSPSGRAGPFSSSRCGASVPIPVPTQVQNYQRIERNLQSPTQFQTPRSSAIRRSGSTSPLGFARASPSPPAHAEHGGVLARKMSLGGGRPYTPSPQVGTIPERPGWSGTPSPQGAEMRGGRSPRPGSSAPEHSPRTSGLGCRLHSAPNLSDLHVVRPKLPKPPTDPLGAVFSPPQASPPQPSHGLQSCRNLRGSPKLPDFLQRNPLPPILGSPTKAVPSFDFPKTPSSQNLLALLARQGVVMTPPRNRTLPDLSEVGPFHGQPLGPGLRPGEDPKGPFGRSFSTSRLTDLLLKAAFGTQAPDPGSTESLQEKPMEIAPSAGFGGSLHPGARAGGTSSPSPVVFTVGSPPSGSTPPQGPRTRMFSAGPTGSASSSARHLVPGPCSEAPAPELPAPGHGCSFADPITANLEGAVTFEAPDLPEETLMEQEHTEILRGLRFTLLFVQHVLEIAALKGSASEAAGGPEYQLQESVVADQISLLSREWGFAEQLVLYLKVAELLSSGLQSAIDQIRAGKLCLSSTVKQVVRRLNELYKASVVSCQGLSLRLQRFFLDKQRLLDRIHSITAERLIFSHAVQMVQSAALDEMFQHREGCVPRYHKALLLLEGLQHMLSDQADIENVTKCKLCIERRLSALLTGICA

Cannabinoid receptor 1 = Cannabinoid receptor 1 (Homo sapiens, UniProt P21554); assay: Selectivity interaction (Panel of non-epigenetic targets (kinases, GPCRs, ion channels, and transporters, Eurofins) ) EUB0000271b CNR1; conditions: at 1 µM
Chain of Cannabinoid receptor 1 (P21554 whole entry): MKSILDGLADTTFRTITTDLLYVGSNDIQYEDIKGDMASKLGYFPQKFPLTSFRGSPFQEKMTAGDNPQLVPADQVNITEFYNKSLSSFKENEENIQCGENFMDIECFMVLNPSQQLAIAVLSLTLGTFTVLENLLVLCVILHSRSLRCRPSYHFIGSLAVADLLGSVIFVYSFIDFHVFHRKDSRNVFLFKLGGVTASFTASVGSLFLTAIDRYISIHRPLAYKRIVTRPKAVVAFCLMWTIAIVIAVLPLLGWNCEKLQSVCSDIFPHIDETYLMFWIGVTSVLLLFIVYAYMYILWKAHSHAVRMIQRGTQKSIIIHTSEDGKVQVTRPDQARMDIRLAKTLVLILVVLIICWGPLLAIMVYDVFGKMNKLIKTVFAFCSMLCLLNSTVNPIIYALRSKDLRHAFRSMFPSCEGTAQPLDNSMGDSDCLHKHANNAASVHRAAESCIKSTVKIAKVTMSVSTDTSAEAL

[2] = biological target: Tyrosine-protein kinase receptor Tie-1 (Homo sapiens) (UniProt P35590); assay: Selectivity interaction (KinomeScan (DiscoverX)) EUB0001049a TIE1; conditions: at 1 µM
Chain of Tyrosine-protein kinase receptor Tie-1 (Homo sapiens) (P35590 whole entry): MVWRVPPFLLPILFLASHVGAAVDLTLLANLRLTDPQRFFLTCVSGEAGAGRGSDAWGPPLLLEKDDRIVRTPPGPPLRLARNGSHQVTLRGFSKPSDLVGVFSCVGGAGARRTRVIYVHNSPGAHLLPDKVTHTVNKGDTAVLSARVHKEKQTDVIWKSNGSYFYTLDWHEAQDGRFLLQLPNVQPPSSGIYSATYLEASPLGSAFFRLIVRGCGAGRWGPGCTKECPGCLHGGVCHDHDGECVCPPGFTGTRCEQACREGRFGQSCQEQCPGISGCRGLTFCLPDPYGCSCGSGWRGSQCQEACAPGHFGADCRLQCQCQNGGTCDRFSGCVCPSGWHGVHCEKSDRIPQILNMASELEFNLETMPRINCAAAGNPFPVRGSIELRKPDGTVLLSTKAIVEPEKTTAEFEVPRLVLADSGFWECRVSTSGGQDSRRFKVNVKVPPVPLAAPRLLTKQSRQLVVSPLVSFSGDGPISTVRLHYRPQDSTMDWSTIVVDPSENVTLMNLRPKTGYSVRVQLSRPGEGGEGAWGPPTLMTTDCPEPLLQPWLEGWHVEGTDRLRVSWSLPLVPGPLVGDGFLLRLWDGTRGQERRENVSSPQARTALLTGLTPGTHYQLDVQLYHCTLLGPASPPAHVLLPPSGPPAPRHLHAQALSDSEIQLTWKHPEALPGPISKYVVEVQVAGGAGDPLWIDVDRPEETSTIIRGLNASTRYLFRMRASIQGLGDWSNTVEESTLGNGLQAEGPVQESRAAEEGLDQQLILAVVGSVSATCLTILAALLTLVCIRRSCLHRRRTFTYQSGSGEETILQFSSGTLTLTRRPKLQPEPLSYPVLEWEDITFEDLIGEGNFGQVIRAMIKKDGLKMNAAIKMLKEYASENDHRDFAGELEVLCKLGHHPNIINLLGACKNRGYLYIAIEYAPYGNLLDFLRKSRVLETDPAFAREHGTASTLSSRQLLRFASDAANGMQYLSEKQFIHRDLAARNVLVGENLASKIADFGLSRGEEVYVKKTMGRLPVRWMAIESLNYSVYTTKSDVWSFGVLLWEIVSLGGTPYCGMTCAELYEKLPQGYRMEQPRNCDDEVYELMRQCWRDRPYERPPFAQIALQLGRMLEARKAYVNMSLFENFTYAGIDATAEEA

[3] = biological target: Cyclin-dependent kinase 17 (Homo sapiens) (UniProt Q00537); assay: Selectivity interaction (KinomeScan (DiscoverX)) EUB0000607a CDK17; conditions: at 10 µM
Chain of Cyclin-dependent kinase 17 (Homo sapiens) (Q00537 whole entry, looked up): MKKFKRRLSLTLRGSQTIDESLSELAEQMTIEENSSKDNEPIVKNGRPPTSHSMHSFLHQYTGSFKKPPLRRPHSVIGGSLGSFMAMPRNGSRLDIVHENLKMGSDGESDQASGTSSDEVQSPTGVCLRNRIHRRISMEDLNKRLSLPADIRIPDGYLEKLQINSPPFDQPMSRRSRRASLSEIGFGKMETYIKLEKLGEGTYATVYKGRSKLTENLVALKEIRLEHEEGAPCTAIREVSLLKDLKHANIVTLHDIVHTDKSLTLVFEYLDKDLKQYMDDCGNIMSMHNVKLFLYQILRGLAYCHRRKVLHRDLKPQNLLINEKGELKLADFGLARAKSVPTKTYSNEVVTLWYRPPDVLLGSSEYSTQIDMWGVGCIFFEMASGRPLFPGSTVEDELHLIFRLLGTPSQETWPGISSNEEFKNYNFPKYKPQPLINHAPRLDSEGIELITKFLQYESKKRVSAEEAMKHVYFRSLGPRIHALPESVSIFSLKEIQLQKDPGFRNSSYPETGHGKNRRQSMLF

[4] = biological target: Protein kinase C delta type (Homo sapiens) (UniProt Q05655); assay: Selectivity interaction (KinomeScan (DiscoverX)) EUB0000618a PRKCD; conditions: at 10 µM
Chain of Protein kinase C delta type (Homo sapiens) (Q05655 whole entry, looked up): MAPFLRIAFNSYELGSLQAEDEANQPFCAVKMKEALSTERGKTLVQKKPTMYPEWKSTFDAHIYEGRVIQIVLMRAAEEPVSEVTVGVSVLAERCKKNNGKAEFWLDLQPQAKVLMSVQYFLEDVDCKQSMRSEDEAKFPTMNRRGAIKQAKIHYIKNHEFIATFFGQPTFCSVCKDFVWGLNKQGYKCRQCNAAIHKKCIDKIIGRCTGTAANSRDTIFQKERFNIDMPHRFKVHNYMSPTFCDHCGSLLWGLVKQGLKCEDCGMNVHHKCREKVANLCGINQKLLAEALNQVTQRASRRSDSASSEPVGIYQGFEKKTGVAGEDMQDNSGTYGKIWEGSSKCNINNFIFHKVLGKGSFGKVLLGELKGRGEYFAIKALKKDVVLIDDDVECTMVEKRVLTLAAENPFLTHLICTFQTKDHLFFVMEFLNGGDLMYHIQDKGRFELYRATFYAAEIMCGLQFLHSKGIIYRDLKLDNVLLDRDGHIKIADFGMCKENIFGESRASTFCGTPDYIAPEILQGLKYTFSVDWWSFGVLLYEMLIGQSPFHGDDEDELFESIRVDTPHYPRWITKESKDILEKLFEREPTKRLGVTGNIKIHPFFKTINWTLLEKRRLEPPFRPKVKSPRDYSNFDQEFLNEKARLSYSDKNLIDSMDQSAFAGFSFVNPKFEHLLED

[5] = biological target: T2, Serine/threonine-protein kinase TAO2 (Homo sapiens) (UniProt Q9UL54); assay: Selectivity interaction (ActivX KiNativ screen (kinase selectivity in THP-1 cell lysates)) EUB0000639a TAOK2; assay type: subcellular; conditions: lysate
T2 sequence (whole entry): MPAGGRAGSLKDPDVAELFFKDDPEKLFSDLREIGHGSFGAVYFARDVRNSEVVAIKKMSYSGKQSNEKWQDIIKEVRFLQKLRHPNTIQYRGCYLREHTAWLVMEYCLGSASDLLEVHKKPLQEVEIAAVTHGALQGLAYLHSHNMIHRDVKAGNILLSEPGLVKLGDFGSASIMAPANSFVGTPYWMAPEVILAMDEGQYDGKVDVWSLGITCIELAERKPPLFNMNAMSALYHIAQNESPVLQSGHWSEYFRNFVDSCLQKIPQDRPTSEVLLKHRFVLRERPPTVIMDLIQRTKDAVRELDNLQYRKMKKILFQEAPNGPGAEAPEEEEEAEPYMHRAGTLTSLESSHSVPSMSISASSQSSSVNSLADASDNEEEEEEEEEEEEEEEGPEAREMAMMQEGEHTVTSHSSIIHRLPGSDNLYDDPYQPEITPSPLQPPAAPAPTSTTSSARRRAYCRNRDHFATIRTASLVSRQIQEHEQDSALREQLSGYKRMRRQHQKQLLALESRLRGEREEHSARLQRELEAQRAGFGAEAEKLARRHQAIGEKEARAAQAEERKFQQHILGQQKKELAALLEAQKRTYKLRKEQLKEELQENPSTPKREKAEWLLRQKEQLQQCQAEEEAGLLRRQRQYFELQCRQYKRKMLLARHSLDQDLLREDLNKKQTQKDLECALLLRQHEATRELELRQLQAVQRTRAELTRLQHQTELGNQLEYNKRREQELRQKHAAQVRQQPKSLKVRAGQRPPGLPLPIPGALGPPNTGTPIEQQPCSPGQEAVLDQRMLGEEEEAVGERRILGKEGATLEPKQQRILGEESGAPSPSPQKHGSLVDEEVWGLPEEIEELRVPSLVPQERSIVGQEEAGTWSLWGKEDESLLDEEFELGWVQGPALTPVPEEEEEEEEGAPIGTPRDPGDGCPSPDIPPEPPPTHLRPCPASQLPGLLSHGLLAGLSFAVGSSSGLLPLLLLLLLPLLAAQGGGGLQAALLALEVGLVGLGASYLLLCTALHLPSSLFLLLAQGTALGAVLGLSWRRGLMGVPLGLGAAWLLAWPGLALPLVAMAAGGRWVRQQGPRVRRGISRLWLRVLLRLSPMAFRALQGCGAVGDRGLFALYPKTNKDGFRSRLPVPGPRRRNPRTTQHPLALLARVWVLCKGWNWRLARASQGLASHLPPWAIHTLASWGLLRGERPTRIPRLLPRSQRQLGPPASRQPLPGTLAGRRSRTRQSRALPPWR

[6] = biological target: Calcium/calmodulin-dependent protein kinase type II subunit alpha (Homo sapiens, UniProt Q9UQM7); assay: Selectivity interaction (Ambit KINOMEscan and KiNATiv profiling in Jurkat cells) EUB0000090b CAMK2A; assay type: cell-based; conditions: at 1 µM
Chain of Calcium/calmodulin-dependent protein kinase type II subunit alpha (Q9UQM7 whole entry): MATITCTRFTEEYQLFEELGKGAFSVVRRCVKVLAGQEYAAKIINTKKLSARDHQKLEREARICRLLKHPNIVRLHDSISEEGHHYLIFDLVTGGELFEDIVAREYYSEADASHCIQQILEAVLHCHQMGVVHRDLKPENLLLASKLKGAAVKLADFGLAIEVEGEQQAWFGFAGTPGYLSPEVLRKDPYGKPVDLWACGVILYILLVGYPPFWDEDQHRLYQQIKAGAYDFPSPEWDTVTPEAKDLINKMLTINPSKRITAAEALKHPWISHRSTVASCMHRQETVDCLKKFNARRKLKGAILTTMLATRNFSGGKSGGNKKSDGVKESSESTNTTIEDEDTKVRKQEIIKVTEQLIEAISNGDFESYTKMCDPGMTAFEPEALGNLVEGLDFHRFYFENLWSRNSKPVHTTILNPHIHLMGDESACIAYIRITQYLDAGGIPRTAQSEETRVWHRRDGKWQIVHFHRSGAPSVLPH

[7] = biological target: Homeodomain-interacting protein kinase 3 (Homo sapiens, UniProt Q9H422); assay: Selectivity interaction (Ambit KINOMEscan and KiNATiv profiling in Jurkat cells) EUB0000090b HIPK3; assay type: cell-based; conditions: at 1 µM
Chain of Homeodomain-interacting protein kinase 3 (Q9H422 whole entry, looked up): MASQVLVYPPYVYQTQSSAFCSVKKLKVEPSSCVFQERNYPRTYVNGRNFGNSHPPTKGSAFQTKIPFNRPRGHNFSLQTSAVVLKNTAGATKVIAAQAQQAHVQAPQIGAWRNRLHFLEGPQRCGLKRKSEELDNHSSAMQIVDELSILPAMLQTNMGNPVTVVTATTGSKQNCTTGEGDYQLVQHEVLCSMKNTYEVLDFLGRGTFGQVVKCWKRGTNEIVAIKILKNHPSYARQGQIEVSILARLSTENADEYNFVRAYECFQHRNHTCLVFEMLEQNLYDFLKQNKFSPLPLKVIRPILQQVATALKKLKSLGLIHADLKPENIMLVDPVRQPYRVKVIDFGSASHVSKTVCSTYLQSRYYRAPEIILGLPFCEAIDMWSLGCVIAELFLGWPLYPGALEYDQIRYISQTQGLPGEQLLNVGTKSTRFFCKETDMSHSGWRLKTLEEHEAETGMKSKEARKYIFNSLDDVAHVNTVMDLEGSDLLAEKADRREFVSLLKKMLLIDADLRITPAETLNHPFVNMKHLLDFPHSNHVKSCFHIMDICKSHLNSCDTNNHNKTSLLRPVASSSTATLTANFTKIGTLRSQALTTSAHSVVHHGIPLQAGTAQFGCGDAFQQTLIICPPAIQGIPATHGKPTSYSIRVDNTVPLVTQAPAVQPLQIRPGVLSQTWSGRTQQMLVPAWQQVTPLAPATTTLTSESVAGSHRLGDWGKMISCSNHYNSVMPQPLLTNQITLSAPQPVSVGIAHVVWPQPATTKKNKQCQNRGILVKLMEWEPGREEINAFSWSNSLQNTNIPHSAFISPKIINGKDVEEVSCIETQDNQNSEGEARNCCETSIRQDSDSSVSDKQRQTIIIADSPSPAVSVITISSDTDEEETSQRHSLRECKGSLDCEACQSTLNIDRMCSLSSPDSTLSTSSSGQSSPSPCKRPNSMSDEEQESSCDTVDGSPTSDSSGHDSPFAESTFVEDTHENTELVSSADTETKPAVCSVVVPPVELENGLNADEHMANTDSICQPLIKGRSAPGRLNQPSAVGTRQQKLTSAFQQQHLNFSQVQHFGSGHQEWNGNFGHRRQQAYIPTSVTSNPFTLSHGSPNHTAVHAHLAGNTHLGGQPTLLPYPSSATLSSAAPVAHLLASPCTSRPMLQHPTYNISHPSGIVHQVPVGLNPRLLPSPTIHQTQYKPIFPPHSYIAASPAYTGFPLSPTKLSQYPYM

CN(C(=O)c1cnn2cccnc12)c1cc2c(cc1N1CCOCC1)C(=O)N(C[C@@H](F)C(C)(C)O)C2
dTM [1]: -1 K

Cc1cc(C)cc([C@@H]2c3cc(C)ccc3NC(=O)CN2C(=O)c2ccc(Br)s2)c1
% of inhibition (Cannabinoid receptor 1): -20%

COc1cc(Nc2nc(C)cc(-c3cnn4nc(OC)ccc34)n2)cc(C(F)(F)F)c1
% of control [2]: 84%

CNC(=O)Nc1ccc(-c2nc(N3CC4CCC(C3)O4)c3cnn(C4CCC5(CC4)OCCO5)c3n2)cc1
% of control [3]: 100%

O[C@H]1CC[C@H](Nc2ncc3nc(Nc4c(F)cc(F)cc4F)n([C@H]4CCOC4)c3n2)CC1
% of control [4]: 93%

CC[C@@H]1[C@H](F)C(=O)N[C@@H]1COc1nccc2cc(C(N)=O)c(OC)cc12 [ZIMLOVISERTIB]
% of inhibition ([5]; at 0.01 µM): 17.1% | % of inhibition ([5]; at 0.04 µM): 2% | % of inhibition ([5]; at 0.2 µM): -6.6% | % of inhibition ([5]; at 1 µM): -12.9% | % of inhibition ([5]; at 5 µM): 16.2%

CN(C)C/C=C/C(=O)Nc1ccc(C(=O)N2CCCC(Nc3ncc(Cl)c(-c4c[nH]c5ccccc45)n3)C2)cc1 (configuration not stated)
% of control [6]: 99% | % of control [7]: 85%
